In patent US7534558B2, “In vitro diagnostic test for enterovirus infections” (Universite de Lille 2 Droit Et Sante, priority 2003, dated 2009):

What was measured:
[1] = tested on: CVB4E2/plasma induced IFNα production by PBMCs; test: CVB4E2/plasma induced IFNα production by PBMCs (DELFIA); format: cell-based, human
Procedure: VP4, H antigen or mock proteins were preincubated for 1 h at 37° C. at different concentrations with plasma from 5 healthy subjects diluted at optimal dilution (1/10 or 1/100 ). CVB3 or CVB4 were then added for 1 hour before incubating with PBMCs. […] On the contrary, the mock proteins isolated from non-infected Hep-2 cells have non effect on the IFNα production.
(§1) PBMCs separated from whole heparinated blood are distributed into microwells (plate of 96 wells), at the rate of 5 to 8.10^5 cell in 100 μl of supplemented RPMI medium by well. The infection of PBMC is made with a final volume of 100 μl of preparation in each well. After incubation for 48 h at 37° C. under a 5% CO2 atmosphere and 90% humidity, the supernatant is harvested and used immediately for IFNα dosage, or clarified by centrifugation for 10 minutes at 180×g and stored at −80° C. until dosage of the produced IFNα.
(§2) The concentration of the produced IFNα is determined with a sensitive and specific technique, the DELFIA method (Dissociation Enhanced Lanthanide FluoroImmmoAssay) (Rönnblom and al 1997).
(§3) The dosage of IFNα is performed following the DELFIA principle (Dissociation Enhanced Lanthanide FluoroImmunoAssay), based on a immunofluorescence in retarded phase method using antibodies binding IFNα of which one is labelled with europium. The use of an activation solution will release the europium conjugated with antibodies and emit a fluorescence proportional to the amount of produced IFNα and measured with a fluorometer (fluorometer LKB Wallac 1230 ARCOSO®, Turku, Finlande).
Monoclonal anti-IFNα antibodies LT 273 (5.4 mg/ml) and LT 293 (4.8 mg/ml) supplied by Dr Gunar Alm (Uppsala, Sweden) are coated to the bottom of the wells after an incubation for 12 hours at room temperature. These plates can be stored in a buffer at 4° C. or are used immediately. Standard samples of human IFNα are prepared with an “irrelevant” monoclonal mouse antibody IgG1 in order to establish the reference curve (10 measurements). The other samples to be analysed are added to each well (100 μl) with the dilution buffer and the “irrelevant” antibodies and incubated for 2 hours with gentle stirring at room temperature. The wells are washed 3 times with the washing solution. The antibody conjugated to europium (200 μl) is added to each well, left to incubate for 1 hour at room temperature with gentle stirring. The plate is washed 6 times with a washing solution. The activation solution (200 μl), added immediately after washing and left for 20 to 30 minutes for incubation in the well, causes a cleavage of the europium bound to the antibody fixed to IFNα, emitting a fluorescence measured with the fluorescence reader (LKB Wallac 1230 ARCUS®). The IFNα concentration will be calculated from the values of the measured fluorescence by means of the Graphpad program (San Diego, USA). The detection threshold of IFNα is of 0.5 IU/ml.
The plasma from a healthy donor (optimal dilution 1/10th or 1/100th) is pre-incubated for 1 hour at 37° C. with the recombinant VP4 protein of CVB4E2 (optimal concentration at 1 μg/ml). The whole is incubated again for one hour at 37° C. in the presence of the CVB4E2 virus (dilutions at 1/10th or 1/100th; viral titer at 10^13 TCID50/ml) then applied to the PBMCs, (5.10^5/well) to incubate for 48 hours.
In the same way, the plasma preparation preincubated for 1 hour and VP4 of CVB3 are incubated for 1 hour with CVB4E2 before infecting the PBMCs for 48 hours and determinating the amount of the produced IFNα.
The virus (CVB4E2 or CVB3) infected PBMCs in the presence of plasma are deemed to be positive controls of this experimentation. The negative controls are obtained with one well of PBMC alone, one well of virus CVB4B2 alone and one well of CVB3 alone.
The CVB4E2 induced IFNα production in cultures of PBMCs previously incubated in the presence of plasma from healthy subjects was measured. […]

[2] = tested on: anti-VP4 antibodies in plasmas or serums; test: ELISA of plasmas/serums on wells coated with VP4 protein or VP4 peptides; format: binding, human; conditions: diluted 1/50, antigen coated at 5 μg/ml, 490 nm
Procedure: 40 plasmas from non diabetic patients and 40 plasmas or serums from diabetic patients were assayed.
The VP4 protein or the 5 VP4 peptides, diluted at 5 μg/ml in PBS buffer pH=7.4, are coated in the wells of a microplate of 96 wells (FluoroMunc, MaxiSorp surface, NUNC, Danemark) at the rate of 100 μl/well. The plates are incubated for 1 hour at 37° C. under humid atmosphere, then left for 24 h at room temperature. After 3 washings with PBS buffer, the wells are saturated with 300 μl of saturation buffer for 1 hour at 37° C. under humid atmosphere, before washing 3 times with the washing buffer. Then 250 μl of post-coating buffer are added to each well and the plates are incubated for 24 h at room temperature, then stored at 4° C. until use.
The wells coated with the VP4 protein or the different peptides VP4 are washed 3 times with washing buffer in order to remove the post-coating solution. Then 100 μl of the plasmas or serums diluted to 1/50th in dilution buffer are added to different wells and the plates are incubated for 1 hour at 37° C. under humid atmosphere. Simultaneously, a negative control well containing 100 μl of dilution buffer is carried out. Then the wells are washed 3 times with the washing solution and 100 μl of secondary antibody solution are added to each well. After incubation for 1 h at 37° C. under humid atmosphere, the wells are washed 5 times with the washing solution and 100 μl of substrate solution are added to each well. The plates are incubated for 30 minutes at room temperature and in the dark. The coloured reaction is stopped by addition of 25 μl of H2SO4 2M (1M) per well and the plates are read in a plate reader at a wavelength of 490 nm.
ODs obtained for each serum with the VP4 protein and the different peptides VP4 were divided by the OD obtained with the negative control. The following Tables show the mean +/− standard deviation of the rates of OD obtained with the two series of assayed serums (Patient=diabetic patients, Control=not diabetic). (see FIGS. 8 à 10)

IFNα production by PBMCs = IFNα production by PBMCs with VP4 protein alone (control wells); format: cell-based, human; conditions: no virus, no plasma
Procedure: as §1, §2, §3
Monoclonal anti-IFNα antibodies LT 273 (5.4 mg/ml) and LT 293 (4.8 mg/ml) supplied by Dr Gunar Alm (Uppsala, Sweden) are coated to the bottom of the wells after an incubation for 12 hours at room temperature. […]

“recombinant VP4 protein: recombinant VP4 protein of CVB4E2, made in E. coli as MBP-VP4 fusion and cleaved by Factor Xa” was tested, and the IFNα production ([1]; CVB4E2 infection of PBMCs, healthy donor plasma preincubated 1 h with the VP4 protein before CVB4E2, 48 h, positive control 148 IU/ml) was 8.5 IU/ml, the “IFNα production in the presence of CVB4E2” value ([1]; plasma 1/10 preincubated 1 h with VP4 recombinant protein of CVB4E2 diluted 1/10) was “collapsed” and the IFNα production ([1]; protein at 0.01 μg/mL preincubated with plasma, then CVB4E2 (m.o.i. 1), PBMCs 48 h, mean +/- SD, three donors) was 189.5+/−21.6 IU/mL. For the same substance, the IFNα production ([1]; protein at 0.1 μg/ml preincubated with plasma, then CVB4E2 (m.o.i. 1), PBMCs 48 h, mean +/- SD, three donors) was 104.7+/−4.5 IU/mL, the IFNα production ([1]; protein at 1 μg/ml preincubated with plasma, then CVB4E2 (m.o.i. 1), PBMCs 48 h, mean +/- SD, three donors) was 44.1+/−24.3 IU/mL and the IFNα production ([1]; protein at 10 μg/ml preincubated with plasma, then CVB4E2 (m.o.i. 1), PBMCs 48 h, mean +/- SD, three donors) was 15.3+/−7.9 IU/mL. The “Mean value of OD ratio (OD / OD of negative control), ELISA” value ([2]; Control = 40 serums of non diabetic patients) was 0.695, the “Mean value of OD ratio (OD / OD of negative control), ELISA” value ([2]; Patient = 40 serums of diabetic patients) was 2.119 and the “IFNα production by PBMCs, protein alone” value (IFNα production by PBMCs) was “do not lead to the IFNα production”.
